In general, IC50 refers to the concentration at which inhibition is half-maximal. Lower therefore signals greater potency in that assay.

Active and inactive are the calls of the source. No cut-off for these calls is given here.

Experimental findings from ChEMBL document CHEMBL1126377, “Synthesis of 9-[2-(phosphonomethoxy)ethylamino]adenine and 9-[(phosphonomethoxy)acetamido]adenine, analogues of a potent anti-HIV acyclonucleotide” (Bioorg Med Chem Lett, 1992) are described below.

Common to all, as to assay type: functional, organism-based
Experiment [1] concerns Human immunodeficiency virus 1. As to the kind of experiment: Inhibition of the replication of human immunodeficiency virus (HIV) at 10 uM concentration.
The subject of a further experiment is Cytomegalovirus. As to the kind of experiment: Effect on replication of cytomegalovirus at a concentration of 300 uM; NE=No effect.
The subject of a further experiment is Human alphaherpesvirus 2. In words: Effect on replication of herpes simplex virus type 2 at a concentration of 300 uM; NE=No effect.
For experiment [2], the system named is Human immunodeficiency virus 1. As to the kind of experiment: Inhibition of the replication of human immunodeficiency virus (HIV) at 10 uM concentration; NE=No effect.
The subject of a further experiment is Human alphaherpesvirus 1. In words: Effect on replication of herpes simplex virus type 1 at a concentration of 300 uM; NE=No effect.
A further experiment has as its system Human alphaherpesvirus 3. In words: Effect on replication of varicella zoster virus at a concentration of 300 uM; NE=No effect.

As for `Nc1ncnc2c1ncn2OCCOCP(=O)(O)O`, in experiment [1], the IC50 was 0.3 µM.
As to `Nc1ncnc2c1ncn2NCCOCP(=O)(O)O`, the result (with Cytomegalovirus; in the experiment with Human alphaherpesvirus 2; in experiment [2]; in the experiment with Human alphaherpesvirus 1; in the experiment on Human alphaherpesvirus 3) was inactive.
Turning to `Nc1ncnc2c1ncn2NC(=O)COCP(=O)(O)O`, the outcome (in the experiment on Cytomegalovirus; in the experiment with Human alphaherpesvirus 2; in experiment [2]; with Human alphaherpesvirus 1; in the experiment with Human alphaherpesvirus 3) was inactive.
With `Nc1ncnc2c1ncn2OCC/C=C/P(=O)(O)O`, the midpoint of inhibition in experiment [1], the IC50, lay at 10 µM.
